Measurements reported in patent publication US9931372B2, “Synthetic apelin fatty acid conjugates with improved half-life” (Novartis AG, priority 2015, dated 2018).
Like-named read-outs stand apart in the source and are kept apart here. Bridge positions count the residues as written; N and C are the ends. Square brackets hold non-standard residues; d marks the D form. Peptide text beside a SMILES is read from it. * marks the point of attachment. PEG24 = NCCOCCOCCOCCOCCOCCOCCOCCOCCOCCOCCOCCOCCOCCOCCOCCOCCOCCOCCOCCOCCOCCOCCOCCOCCC(=O)O; Malonyl(C11H23,(CH2)10COOH) = CCCCCCCCCCCC(CCCCCCCCCCC(=O)O)(C(=O)O)C(=O)*; PEG12 = NCCOCCOCCOCCOCCOCCOCCOCCOCCOCCOCCOCCOCCC(=O)O; pGlu = O=C1CC[C@@H](C(=O)O)N1; PEG4 = NCCOCCOCCOCCOCCC(=O)O; Nle = CCCC[C@H](N)C(=O)O

What was measured:
hAPJ = target: T1, hAPJ (Homo sapiens, UniProt P35414); assay: hAPJ Calcium flux assay; format: cell-based
T1 sequence (P35414 1-380): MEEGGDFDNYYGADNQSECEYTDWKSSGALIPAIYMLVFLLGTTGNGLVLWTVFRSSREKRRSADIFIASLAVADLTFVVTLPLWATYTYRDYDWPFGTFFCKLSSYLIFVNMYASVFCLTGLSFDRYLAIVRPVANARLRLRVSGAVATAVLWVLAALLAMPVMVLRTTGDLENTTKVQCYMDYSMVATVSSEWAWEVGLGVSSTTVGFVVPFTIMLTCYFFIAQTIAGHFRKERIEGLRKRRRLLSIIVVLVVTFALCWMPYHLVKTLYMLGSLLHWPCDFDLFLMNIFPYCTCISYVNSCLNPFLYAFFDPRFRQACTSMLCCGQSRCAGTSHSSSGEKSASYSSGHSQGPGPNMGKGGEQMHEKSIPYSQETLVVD
Protocol: Chem-5 APJ stable cells (Millipore # HTS068C) were plated in 384-well format with 10,000 cells/well in 25 ul growth media, then grown 24 hours in a 37° C. tissue culture incubator. One hour before the assay, 25 ul/well FLIPR Calcium 4 dye (Molecular Devices R8142) with 2.5 mM probenecid was added, and cells were incubated one hour in a 37° C. tissue culture incubator. Bioconjugates were solubilized in HBSS, HEPES & 0.1% BSA buffer, and serially-diluted 10-fold, from 50 uM to 5 pM, in triplicate. FLIPR Tetra was used to add bioconjugates to the cells with dye (1:5, for final bioconjugate concentrations ranging from 10 uM to 1 pM). FLIPR dye inside the cells emitted fluorescence after binding to calcium, while fluorescence from outside the cells was masked. Fluorescence was measured using 470-495 excitation and 515-575 emission wavelengths on the FLIPR Tetra. Readings were done for 3 minutes total, beginning 10 seconds before the bioconjugate addition. Maximum-minimum values were calculated and plotted for each bioconjugate concentration, and GraphPad prism software was used to calculate EC50 values at the curve inflection points, for calcium flux stimulation by bioconjugates.

[1] = Surrogate activity-based plasma stability assay; format: in vitro ADME; details: rat
Description: Surrogate Activity-Based Plasma Stability Assay:
2) Calculate slope of value above and […]

[2] = In vivo pharmacokinetic assessment via SC dosing; details: mouse, C57/B6 mice, subcutaneous dosing, plasma, read-out: t½ (converted)
Protocol: Protocols and Data for the In Vivo Pharmacokinetic Assessment Via SC Dosing. Formulation, Dosing and Sample Acquisition: […]
Example 1 and example 4 were dissolved to 0.1 mg/ml concentration in 30% (w/v) PEG300 and 5% (w/v) dextrose in PBS. C57/B6 mice (˜20 weeks of age) were dosed with dissolved compound by subcutaneous (SC) injection into the flank (n=4 per compound). Injection volume was 10 ml/kg. Blood samples were withdrawn from the saphenous vein at 3 and 6 hours post-dose, as well as at 1, 2, 4, 7 and 10 days post dose. Blood samples were immediately centrifuged at 4000×g for 10 min. Plasma supernatant (10 μL) was transferred to a 96-well plate and frozen at −80 C until analysis.
C57/B6J mice (˜22 weeks of age) were dosed with dissolved compound by SC injection (n=4). Blood samples were withdrawn from the tail vein at 15, 30, 60 and 120 minutes post injection. These were immediately centrifuged and then plasma supernatant was transferred to a 96-well plate and frozen at −80 C until analysis.
Preparation of Samples for Bioanalysis:
A pre-weighed sample of each compound (1-3 mg) was obtained and dissolved to 1 mg/ml in DMSO. These were diluted serially in mouse plasma (BioReclamation) to final concentrations of 10,000, 5,000, 1,000, 500, 100, 50, 10, 5, and 1 ng/ml to make standard curve for analysis.
Plasma samples from PK studies were thawed and diluted to 25 μL total volume by addition of mouse plasma.
25 μL aliquots of each sample and standard curve sample were arranged on a 96-well plate.
150 μL acetonitrile containing 100 ng/ml glyburide as internal standard was added to each sample and the samples vortexed for 30 seconds. Samples were then centrifuged at 4000×g for 10 minutes. 125 μL supernatant was then transferred to a fresh 96-well plate. 50 μL of water was added and mixed by vortexing for 30 seconds.
LC/MS Bioanalysis (Agilent 1290):
Samples (10 μL) were transferred to an HPLC using a CTC PAL autosampler. The LC column was ACE C18 30×2.1 mm, 3.0 μm bead. […]

[3] = Chem-5 APJ stable cells, FLIPR calcium flux, read-out: hAPJ Ca^2+ Flux EC50

| EC50 (hAPJ; [3]) [nM] | Structure (SMILES) | EC50 (hAPJ) [nM] | half-life [1] [h] | half-life [2] [h] | half-life ([2]; 1 mg/kg) [h] |
| --- | --- | --- | --- | --- | --- |
| – | CCCC[C@@H]1NC(=O)[C@@H]2CCCN2C(=O)CNC(=O)[C@H](CCCCN)NC(=O)[C@H](Cc2cnc[nH]2)NC(=O)[C@@H](NC(=O)[C@H](CC(C)C)NC(=O)[C@H](CCCNC(=N)N)NC(=O)[C@@H]2CCCN2C(=O)[C@H](CCCNC(=N)N)NC(=O)[C@@H]2CCC(=O)N2)CSSC[C@@H](C(=O)N[C@@H](Cc2ccccc2)C(=O)O)NC1=O [pE-R-P-R-L-C*-H-K-G-P-Nle-C*-F-OH, reference compound] ([pGlu]RPRLCHKGP[Nle]CF-OH; disulfide 6-12) | 1 | 2.2 | 0.52 | – |
| 111 | CCCCCCCCCCCC(CCCCCCCCCCC(=O)O)(C(=O)O)C(=O)NCCOCCOCCOCCOCCOCCOCCOCCOCCOCCOCCOCCOCCOCCOCCOCCOCCOCCOCCOCCOCCOCCOCCOCCOCCC(=O)N[C@@H](CCC(N)=O)C(=O)N[C@@H](CCCNC(=N)N)C(=O)N1CCC[C@H]1C(=O)N[C@@H](CCCNC(=N)N)C(=O)N[C@@H](CC(C)C)C(=O)N[C@H]1CSSC[C@@H](C(=O)N[C@@H](Cc2ccccc2)C(=O)O)NC(=O)[C@H](CCCC)NC(=O)[C@@H]2CCCN2C(=O)CNC(=O)[C@H](CCCCN)NC(=O)[C@H](Cc2cnc[nH]2)NC1=O (stereo partly drawn) [Example 1, Fatty Acid-Linker#1Q-R-P-R-L-C*-H-K-G-P-(Nle)-C*-F (C6-C12 Disulfide Bridge)] ({Malonyl(C11H23,(CH2)10COOH)-PEG24}-QRPRLCHKGP[Nle]CF-OH; disulfide 6-12) | – | > 16.7 | – | 43 |
| 158 | CCCCCCCCCCCC(CCCCCCCCCCC(=O)O)(C(=O)O)C(=O)NCCOCCOCCOCCOCCC(=O)N[C@@H](CCC(N)=O)C(=O)N[C@@H](CCCNC(=N)N)C(=O)N1CCC[C@H]1C(=O)N[C@@H](CCCNC(=N)N)C(=O)N[C@@H](CC(C)C)C(=O)N[C@H]1CSSC[C@@H](C(=O)N[C@@H](Cc2ccccc2)C(=O)O)NC(=O)[C@H](CCCC)NC(=O)[C@@H]2CCCN2C(=O)CNC(=O)[C@H](CCCCN)NC(=O)[C@H](Cc2cnc[nH]2)NC1=O (some centres unmarked) [Example 4] ({Malonyl(C11H23,(CH2)10COOH)-PEG4}-QRPRLCHKGP[Nle]CF-OH; disulfide 6-12) | – | > 16.7 | – | 23 |
| 84.8 | CCCCCCCCCCCC(CCCCCCCCCCC(=O)O)(C(=O)O)C(=O)NCCOCCOCCOCCOCCOCCOCCOCCOCCOCCOCCOCCOCCC(=O)N[C@@H](CCC(N)=O)C(=O)N[C@@H](CCCNC(=N)N)C(=O)N1CCC[C@H]1C(=O)N[C@@H](CCCNC(=N)N)C(=O)N[C@@H](CC(C)C)C(=O)N[C@H]1CSSC[C@@H](C(=O)N[C@@H](Cc2ccccc2)C(=O)O)NC(=O)[C@H](CCCC)NC(=O)[C@@H]2CCCN2C(=O)CNC(=O)[C@H](CCCCN)NC(=O)[C@H](Cc2cnc[nH]2)NC1=O (some centres unmarked) [Example 2] ({Malonyl(C11H23,(CH2)10COOH)-PEG12}-QRPRLCHKGP[Nle]CF-OH; disulfide 6-12) | – | > 16.7 | – | – |
